Data as given in patent US12582721B2, “Molybdenum-based feed supplement for bees” (UNIVERSITE DE VERSAILLES—SAINT-QUENTIN-EN-YVELINES, priority 2020, dated 2026).

Tests used:
Varroa destructor = experiment: 1st test in hives: degree of infestation with Varroa; type: in vivo; conditions: for Degree of infestation with Varroa / Degree of infestation with Varroa, change versus batch I: overall dose 2 mg per colony; for Degree of infestation with Varroa: 100 = 1.78 mite/10 g of bees; for Degree of infestation with Varroa, change versus batch I: value in brackets
Protocol: Biological field tests were performed on families of European domestic bees of the species Apis mellifera […] experimental apiary located in the […] forestry district (Republic of Moldova). Feeding with the complex of the invention took place in spring. The biological tests were monitored up to the month of September. To administer the compounds to the bees, a very small amount of bioactive substance was added to two types of sugary feeding products for bees: candy in the form of a paste (70% sucrose, 30% honey) or syrup (50% sucrose, 50% water). The bees were fed by adding the candy/syrup to the feeder located in the inner upper part of the hive. The volume of syrup was adjusted based on the number of bee frames at the initial time, more precisely 200 g of candy per frame and 100 mL of syrup per frame, that is 2 kg of candy and 1 L of syrup per hive of 10 frames. For the first feeding step, candy in the form of a paste was only given once. […] From the start of the test to the end (after the second harvest), all the bees were monitored for several key morpho-producing parameters that reflect the development level of the colony and the vital aspects of the bees. The parameters studied are: the prolificity of the queen (fertility), the power of the colonies, the production of honey and the production of wax. These parameters were monitored in line with the zootechnical standards concerning the assessment of bee families, breeding and certification of beekeeping parental material approved by government decision No. 306 dated Apr. 28, 2011 of the Republic of Moldova. The assessment consists in counting the number of Varroa on a sample of adult bees. The value from this count is used as an index for monitoring the level of parasitism in the colony. The method uses icing sugar and a “shaker” jar made of transparent glass with a capacity of 1 kg. The cover is a mesh made of galvanized steel of the type placed at the bottom of the hive, with a mesh size of 3 mm. The mesh allows Varroa mites to pass through but retains the honey bees. The method is implemented according to the following steps: 40 to 50 g of honey bees are collected in the jar (approximately 400 bees), 100 g of icing sugar is added and the shaker jar is rolled for 1 minute so as to cover every bee in icing sugar. The icing sugar then makes it possible to separate the Varroa mites from the body of the host bee so that they drop off. Leave to rest for 1 minute: bees have a delousing behavior, which helps the Varroa mites to drop off. The icing sugar is sieved over a sieve which makes it possible to retain the Varroa mites and then count them. The result is given as the number of mites per 10 g of bees (approximately 100 bees) and can be expressed as a %. This rate is indicative of the Varroa burden in the colony. […] A moderate rate is between 2 and 5 and, in this case, treatment of the colonies must be scheduled. Finally, a rate greater than 5, requires emergency treatment of the colony. Our tests give a result of around 2% for worker bees. The molecules tested, their concentration in solution and their annual overall doses are listed below: • 1. […] The concentration of the complex in the syrup: 1.5×10^-7 mol/L. Overall and annual product dose: 2 mg of complex per colony • 2. […] The concentration of the complex in syrup: 3.0×10^-7 mol/L. Overall and annual product dose: 2 mg of complex per colony • 3. […] Overall and annual product dose: 2 mg of complex per colony • 4. LiCH3COO·H2O as a positive control, abbreviated as Li-Ac • The feeding is carried out with 2000 g of candy containing 0.8 mg of positive control product, then 6 to 7 L of syrup containing 0.2 mg/L of positive control product. The concentration of the product in syrup: 2.36×10^-6 mol/L that is 1.67×10^-5 g/L. Overall and annual product dose: 2 mg of product per colony

[1] = tested on: healthy Madin-Darby canine kidney epithelial cells of the MDCK line; experiment: Resazurin cell proliferation test, MDCK cells; type: cell-based; conditions: healthy cells; IC50 equal to and greater than 100 μM considered no activity
Text: For cell culture, human cervical epithelial cells of the HeLa line, human epithelial pancreatic adenocarcinoma cells of the BxPC-3 line and healthy Madin-Darby canine kidney epithelial cells of the MDCK line were used in this study. The Resazurin cell proliferation test was applied according to the literature (S. Anoopkumar-Dukie, J. B. Carey, T. Conere, E. O'Sullivan, F. N. van Pelt, A. Allshire, Br J Radiol 2005, 78, 945, DOI: 10.1259/bjr/54004230). As an indicator of the effectiveness of the experimental compounds on cell proliferation, the median inhibitory concentration (IC50) was used. The lower the IC50 value, the higher the activity (in this case, the cytotoxicity).
Five formula I complexes were tested in this study in comparison to two reference anti-cancer compounds (“Cisplatin” and Doxorubicin complex).

| Compound | Degree of infestation with Varroa (Varroa destructor) | Degree of infestation with Varroa, change versus batch I (Varroa destructor) [%] | Protective effect against the infestation of bees by Varroa destructor (Varroa destructor; 1st test, 2 mg per colony, relative to untreated batch I, Li complex at a lithium concentration almost 4 times lower than Li—Ac) | IC50, MDCK [1] | IC50 [1] [µM] |
| --- | --- | --- | --- | --- | --- |
| CC(=O)[O-].[Li+] [Li—Ac, LiCH3COO·H2O, reference compound] | 58.4 % relative to batch I | −41.6 |  |  |  |
| O.O.O.O.O.O.O=C([O-])CN(CCN(CC(=O)[O-])CC(=O)[O-])CC(=O)[O-].[Li+].[Li+].[O]=[Mo+]12[O][Mo+]1(=[O])[O]2 [Li—Mo2O4-EDTA, Li2[Mo2O4 (EDTA)]·6H2O] | 57.3 % relative to batch I | −42.7 | protective capacity comparable to that of the lithium acetate | Inactive |  |
| O.O.O.O.O.O=C([O-])CN(CCN(CC(=O)[O-])CC(=O)[O-])CC(=O)[O-].[Na+].[Na+].[O]=[Mo+]12[O][Mo+]1(=[O])[O]2 [Na—Mo2O4-EDTA, Na2[Mo2O4 (EDTA)]·5H2O] | 86.5 % relative to batch I | −13.5 |  | Inactive |  |
| O=C([O-])CN(CCN(CC(=O)[O-])CC(=O)[O-])CC(=O)[O-].[O]=[Mo+]12[O][Mo+]1(=[O])[O]2.c1ccc([P+](c2ccccc2)(c2ccccc2)c2ccccc2)cc1.c1ccc([P+](c2ccccc2)(c2ccccc2)c2ccccc2)cc1 [PPh4—Mo2O4-EDTA, (PPh4)2[Mo2O4 (EDTA)]·2.5H2O] | 78.7 % relative to batch I | −21.3 |  |  | 60.7 ± 12.1 |
